In brackets after ≈: the same amount, converted by molar mass. Where two headings read alike, the source gives them in different places.
Legend:
Type in all cases: cell-based
[1] = test system: Enterobacter cloacae; assay: MIC agar dilution, micro-organism 4 (11936); conditions: Enterobacter cloacae 11936
Method: (§1) Throughout the period of testing the microbial strains were subcultured and incubated for 18-20 hours at 37° C. on a weekly basis. Horse blood agar plates were used to sustain the micro-organisms both prior to and throughout testing. The alkoxylated alkanols listed in Table II below were obtained (these are obtainable from Sigma-Aldrich Company Ltd, Dorset, England), each having a GC purity of at least 97%.
(§2) Molar equivalent concentrations were used to allow comparison between compounds of differing molecular mass. Due to weighing difficulties, any compound in solid form was melted in a water bath prior to dilution. To make ten-times strength concentrations, which takes into account agar dilution, 0.0352 mmol of each compound was weighed into plastic universal bottles and 4 mL of sterile distilled water (SDW) was added. To produce a homogenous emulsion the universals were vortexed; once achieved the emulsions were serial diluted by adding 2 mL to 2 mL of SDW.
(§3) Myristyl alcohol and lauryl alcohol were re-weighed and dissolved in 25 μL of the polar solvent 1-methyl-2-pyrrolidone (M6762; Sigma-Aldrich) in sterile glass universals due to an inability to achieve an even suspension. To maintain an even emulsion in the presence of SDW 37.5 μL of the non-ionic detergent Tween 20 (P1379, Sigma-Aldrich) was also added. 3.9375 mL of SDW was added to these, to create a 4 mL volume; they were vortexed and diluted as before.
(§4) For every 100 mL of Isosensitest agar (IST) (CM0471; Oxoid, Basingstoke, England), 3.1 g of the IST powder was added to 100 mL SDW (as per manufacturer's instructions) and sterilised for 15 minutes at 121° C. Once sterilised, the molten agar was cooled to 50° C. in a water-bath. Subsequently 4.8 g of CCEY powder (BC2160; Bioconnections, Wetherby, England), also known as Brazier's medium, was added to 100 mL SDW for every 100 mL of agar needed. This was then sterilised for 15 minutes at 121° C. Once sterilised the molten agar was cooled to 50° C. in a water-bath and 4 mL of egg-yolk emulsion (S2073; TCS Biosciences Ltd, Buckingham, United Kingdom) and 1 mL of lysed defibrinated horse blood (HB035; TCS Biosciences Ltd, Buckingham, United Kingdom) were also added for every 100 mL needed. Horse blood lysis is achieved by dilution to half concentration with SDW; when fully lysed the mixture will turn dark red in colour.
(§5) 18 mL agar was added to each universal and then poured into sterile Petri dishes. This step creates a 1/10 dilution resulting in agar plates of the required strength. Control plates for each set of strains were created by adding 18 mL of agar to 2 mL of SDW.
(§6) Suspensions of each bacterial species were prepared with a density equal to that of a 0.5 McFarland standard using a densitometer. All suspensions were made using sterile distilled water and fresh 18-20 hour cultures. As a 0.5 McFarland standard contains 1.5×10^8 CFU/mL and the multipoint inoculators applies 1 μL spots of liquid, each bacterial suspension was diluted 1/15 (20 μL suspension to 280 μL sterile distilled water).
(§7) Bacterial suspensions were prepared from fresh 18-24 hour cultures as previously described. 1 μL of each strain was inoculated onto all 100 agar plates containing a different chemical concentration and the 2 control plates. This was done using a multipoint inoculator which inoculates 20 strains per plate. All plates were incubated for 22 hours at 37° C. in aerobic conditions.
(§8) Each plate was examined for bacterial growth after 22 and 48 hours, with each being incubated in between examinations. A positive result was recorded as growth of ≧10 colonies. A negative result was recorded as growth of <10 colonies as this is equivalent to 99.9% inhibition. The lowest concentration of chemical that inhibited growth was recorded as the MIC. The results are recorded in Table IV below, where the numbers are quoted in mmol/L.
(§9) Further experiments have also been conducted to determine the MIC of a number of other compositions as follows. […]

[2] = test system: Serratia marcescens; assay: MIC agar dilution, micro-organism 5 (10211); conditions: Serratia marcescens 10211
Method: as §1, §2, §3, §4, §5, §6, §7, §8, §9

[3] = test system: Burkholderia cepacia; assay: MIC agar dilution, micro-organism 9 (1222); conditions: Burkholderia cepacia 1222
Method: as §1, §2, §3, §4, §5, §6, §7, §8, §9

[4] = test system: Acinetobacter baumannii; assay: MIC agar dilution, micro-organism 10 (19606); conditions: Acinetobacter baumannii 19606
Method: as §1, §2, §3, §4, §5, §6, §7, §8, §9

[5] = test system: Salmonella typhimurium; assay: MIC agar dilution, micro-organism 6 (74); conditions: Salmonella typhimurium 74
Method: as §1, §2, §3, §4, §5, §6, §7, §8, §9

[6] = test system: Yersinia enterocolitica; assay: MIC agar dilution, micro-organism 8 (11176); conditions: Yersinia enterocolitica 11176
Method: as §1, §2, §3, §4, §5, §6, §7, §8, §9

[7] = test system: Stenotrophomonas maltophilia; assay: Additional antibacterial data, MIC (Table XII); conditions: 24 hrs at 37° C.; for MIC (%) volume/volume: Stenotrophomonas maltophilia 10257, inoculum 10000 cfu/spot
Method: (§10) Using the protocols outlined in the example above, the inventors further investigated the antibacterial effects of representative alkoxylated alkanol compounds. The inoculum was 10000 cfu/spot; inclubation was for 24 hrs at 37° C.

[8] = test system: Gram-negative species; assay: Additional antibacterial data, MIC (Table XII); conditions: 24 hrs at 37° C.; for MIC (%) volume/volume: inoculum 10000 cfu/spot
Method: as §10

[9] = test system: Staphylococcus aureus; assay: Additional antibacterial data, MIC (Table XII), Gram positive control; conditions: Staphylococcus aureus 470273M (control); inoculum 10000 cfu/spot; 24 hrs at 37° C.
Method: as §10

[10] = test system: Staphylococcus aureus(MRSA); assay: as above; conditions: Staphylococcus aureus(MRSA) 380022E (control); inoculum 10000 cfu/spot; 24 hrs at 37° C.
Method: as §10

[11] = test system: A549 (ATCC CCL-185) cells
Method: A549 (ATCC CCL-185) cells were plated onto a 96 well and allowed to attach overnight, the wells were washed, and 100 ul of DMEM (Gibco) with 2% FCS was added. To the first column of the data set below, 100 μl of neat virus was added. The virus used was Respiratory Syncytial Virus (RSV), strain A2, a common laboratory strain which retains the ability to infect animal models.
A two serial dilution was performed (up to column 10), lanes 11+12 were uninfected controls, but relevant lanes contained the appropriate concentration of Laureth 4, laureth 4 was added 1 hour after virus absorption. The alkoxylated alkanol compounds used in the experiment were ‘high purity’, i.e. having a GC purity of at least 97%.
After 96 hours incubation at 33° C. the medium was removed, cell washed with PBS and stained with methylene blue (Gibco). Cytopathic effect (cpe) was noted visually and wells marked either as positive or negative when view under a light microscope at 4× magnification.

CCCCCCCCCCCCCCCCO [C0, 1-Hexadecanol, reference compound]
MIC ([1]; 22 hrs, read-out: MIC): > 880 µM
MIC ([1]; 48 hrs, read-out: MIC): > 880 µM
MIC ([2]; 22 hrs, read-out: MIC): > 880 µM
MIC ([2]; 48 hrs, read-out: MIC): > 880 µM
MIC ([3]; 22 hrs, read-out: MIC): > 880 µM
MIC ([3]; 48 hrs, read-out: MIC): > 880 µM
MIC ([4]; 22 hrs, read-out: MIC): > 880 µM
MIC ([4]; 48 hrs, read-out: MIC): > 880 µM
MIC ([5]; Salmonella enterica, 22 hrs, read-out: MIC): 880 µM (≈ 213 µg/mL)
MIC ([5]; Salmonella enterica, 48 hrs, read-out: MIC): 880 µM (≈ 213 µg/mL)
MIC ([6]; 22 hrs, read-out: MIC): > 880 µM
MIC ([6]; 48 hrs, read-out: MIC): > 880 µM

CCCCCCCCCCCCCOCCOCCOCCOCCOCCOCCO [C13E6, polyoxyethylene (6) tridecyl alcohol]
MIC ([1]; 22 hrs): >880 µM
MIC ([1]; 48 hrs): >880 µM
MIC ([2]; 22 hrs): >880 µM
MIC ([2]; 48 hrs): >880 µM
MIC ([3]; 22 hrs): >880 µM
MIC ([3]; 48 hrs): >880 µM
MIC ([4]; 22 hrs): >880 µM
MIC ([4]; 48 hrs): >880 µM
MIC ([5]; 22 hrs): >880 µM
MIC ([5]; 48 hrs): >880 µM
MIC ([6]; 22 hrs): >880 µM
MIC ([6]; 48 hrs): >880 µM

CCCCCCCCCCCCOCCO [L1, Ethylene Glycol Monododecyl Ether]
MIC (%) volume/volume [7]: 0.5 % volume/volume
MIC (%) volume/volume ([8]; Acinetobacter baumannii 19606): 1 % volume/volume
MIC (%) volume/volume ([8]; Escherichia coli 10418): 0.25 % volume/volume
MIC (%) volume/volume ([8]; Klebsiella pneumoniae 9528): 0.5 % volume/volume
activity against selected Gram-negative species ([8]; at higher concentrations, 10000 cfu/spot): shows activity
MIC (%) volume/volume [9]: 0.25 % volume/volume
MIC (%) volume/volume [10]: 0.25 % volume/volume

CCCCCCCCCCCCOCCOCCOCCOCCO [L4, Tetraethylene Glycol Monododecyl Ether]
MIC (%) volume/volume [7]: 0.06 % volume/volume
susceptibility of Stenotrophomonas maltophilia ([7]; relatively low concentrations, 10000 cfu/spot): susceptible
MIC (%) volume/volume ([8]; Acinetobacter baumannii 19606): >4 % volume/volume
MIC (%) volume/volume ([8]; Escherichia coli 10418): >4 % volume/volume
MIC (%) volume/volume ([8]; Klebsiella pneumoniae 9528): >4 % volume/volume
state of treated, uninfected cells [11]: healthy and showed little cellular apathy
MIC (%) volume/volume [9]: 0.03 % volume/volume
MIC (%) volume/volume [10]: 0.03 % volume/volume
